Where two headings read alike, the source gives them in different places.
Experiments:
[1] = tested on: Reversed Passive Arthus Reaction (RPAR) in the rat paw; assay: RPAR-Paw Assay (Reversed Passive Arthus Reaction, rat paw); assay type: in vivo, male Wistar/Lewis inbred albino rats; details: oral, paw volume 2 hours postchallenge, read-out: RPAR-Paw % Inhib.
Description: In order to determine the antiinflammatory activity by the reverse passive Arthus response, male Wistar/Lewis inbred albino rats weighing 180-200 g were used. The rats were housed three animals per cage and fasted 24 hours prior to and during the study. Water was allowed ad libitum.
All reagents and drugs were prepared prior to the study. Crystallized and lyophilized bovine serum albumin (BSA) was solubilized in cold, sterile, pyrogen-free saline (PFS), 10 mg/mL. Lyophylized antibovine serum albumin (anti-BSA), the IgG fraction, was suspended or solubilized in an aqueous solution of methylcellulose (MC) with a homogenizer prior to administration.
One hour prior to sensitization with BSA, groups of animals (minimum six per group) were given drug in MC by gavage according to body weight (1.0 mL/100 g). Controls were given MC alone, and a drug standard, indomethacin, was usually included in each assay. Drugs were prepared so as to provide a dose for a 200 g animal, which was equivalent to the milligram per kilogram dose for the experiment. Each rat received an oral dose in a volume of approximately 2.0 mL. One hour after dosing, the animals were lightly anesthetized with ether and "sensitized" by injection into the penile vein with 0.2 mL of PFS containing 1 mg of BSA. One hour later, the animals were "challenged" in the right hind paw with subplantar injections of 0.2 mL PFS pyrogen-free salin containing 0.1 mg of anti-BSA bovine serum albumin. Immediately after the subplantar injections, the right hand paw was immersed (to the lateral maleolus) into the mercury well of a plethysmograph. The volume of mercury displaced was converted to weight and recorded. This value was considered to be the control reading for the animal. Paw volumes were also recorded with a plethysmograph during the development of the inflammation at 2 hours postchallenge.
Results were expressed by the change in paw volume from the control reading for each animal to that recorded 2 hours postchallenge. All drug-treated groups were compared to the MC control for significant differences by using analysis of variance (Duncan and Dunnetts). Differences from control in drug-treated groups were expressed as percent inhibition.
In order to determine the dose required to inhibit the inflammatory response by 50% (ED50), a minimum of three and a maximum of five points were included in the assay. The ED50 and the relative potency to a drug standard, indomethacin, were determined by linear regression analysis. (J. Med. Chem., 1984, Vol. 27, No. 1, 27). Results for representative compounds of the invention are shown in Columns 3 and 4 of Table 1 below.

[2] = tested on: Reversed Passive Arthus Reaction (RPAR) in the rat pleural cavity; assay: RPAR-Pleural Cavity Assay; assay type: in vivo, male rats; details: for inhibition in vivo at 25 mg/kg / inhibition in vivo at 50 mg/kg: Rattus norvegicus, 4 hours
Description: RPAR-Pleural Cavity Assay
Groups of 4 male rats were injected in the penile vein with antigen (1 mg BSA in 0.2 mL of saline per rat) and 0.5 hour later injected in the pleural cavity with antibody (1.0 mg antibody protein in the IgG fraction of rabbit anti-BSA in 0.2 mL). […] After 4 hours the animals were killed with CO2, and the pleural cavities were opened and the exudate drained into a graduated conical glass centrifuge tube containing indomethacin (1.8 μg) and nordihydroguaiaretic acid (NDGA) (15 μg) to block ex vivo metabolite synthesis. The volume of the exudate was measured. The cavity was then washed out with saline-EDTA to achieve a final volume of 5.0 mL. The number of cells were determined in a Coulter Counter. The cells were spun-down (1000×g) and the exudate supernatant was added to 4 volumes of 95% ethanol and samples were kept on ice for 30 minutes. After removal of the protein precipitate (2,500×g) the ethanol extract of the exudate was dried under N2 and then stored at -20° C. For radioimmunoassay (RIA) analysis the samples were redissolved in water to a volume of 1 mL per rat. Utilizing internally spiked samples, recovery of TXB2 (tritiated thromboxane B2) and LTE4 (tritiated leukotriene-E4) from exudates was determined to be 84±2% (SEM) and 89±2% (N=4), respectively. Exudate samples were directly assayed in duplicate with the commercial ^3 H-TXB2 RIA kit from New England Nuclear and the ^3 H-LTC4 /D4 /E4 kit from Amersham. The assay was validated using reversed-phase HPLC analysis of LTs in the standard procedure described by M. W. Musch, R. W. Bryant, C. Coscollaela, R. F. Myers and M. I. Siegel, Prostaglandins, Vol. 29, pp 405-430 (1985). Samples of ethanol exudate extract were "spiked" with ^3 H-LTs to follow HPLC purification and recovery.

cyclooxygenase = assay: Rat CO/LO Inhibition: cyclooxygenase metabolite HHT in rat pleural neutrophils; assay type: cell-based, male Wistar-Lewis rats; details: 5 M × 10^-5, rat neutrophils
Description: Male Wistar-Lewis rats were injected iv with 5 mg of BSA in 0.2 mL of pyrogen-free saline followed by an intrapleural injection of 500 μg of the IgG fraction of rabbit anti-BSA in 0.2 mL of pyrogen-free saline, all under light anesthesia. After 4 hours the pleural cavity exudate, consisting of 85-95% neutrophils, was removed. Neutrophils were isolated from the pleural exudates by centrifugation at 4° C. for 10 minutes at 200 g. The cell pellet was briefly resuspended in 17 mM Tris-HCl buffer, pH 7.2, containing 0.75% NH4 Cl in order to lyse red cells, followed by centrifugation at 4° C. for 5 minutes at 200 g. The pelleted neutrophils were rewashed in 50 mM Tris-HCl, pH 7.4, containing 100 mM NaCl and 1 mM CaCl2, for a final cell count of approximately 5×10^6 intact neutrophils/0.1 mL of suspension.
Arachidonic acid metabolism via cyclooxygenase and 5-lipoxygenase was determined by preincubating the above cell suspension with the test compound for 4 minutes at room temperature and then adding 0.1 mL of the preincubated cells to assay tubes. The final assay mixture (0.1 mL) contained 40 μM [1-^14 C]arachidonic acid, 10 μM calcium A23187 ionophore and 0.1% BRIJ®56 detergent. After 1 minutes at 37° C., assays were terminated by the addition of 2.4 mL of a CHCl3 /CH3 OH (1:1 v/v) mixture and 0.9 mL of 0.1% HCOOH. The suspension was vortexed, immediately cooled on ice, and centrifuged and the organic layer withdrawn. The extract was evaporated and resuspended in 0.1 mL of CHCl3 /CH3 OH (1:2, v/v) for spotting on silica gel TLC plates (without gypsum). Development was with petroleum ether/diethylether/acetic acid (40:60:1, v/v/v). Products were located by autoradiography and the appropriate regions scraped and counted in a liquid scintillation counter. The 5-lipoxygenase metabolite 5-hydroxy-6,8,11,14-eicosatetraenoic acid (5-HETE) and the cyclooxygenase metabolite 12-hydroxy-[…] (HHT) were identified by cochromatography with authentic standards on TLC plates. Results are reported as percent inhibition of cyclooxygenase and lipoxygenase metabolite formation. (Myers, R. F.; Siegel, M. I., Biochem. Biophys. Res. Commun., 1983, 112, 586.) Results with representative compounds of the invention are shown in Columns 10, 11 and 12 of Table 1 below.

[3] = tested on: Adjuvant-Induced Arthritis in Rats; assay: Adjuvant-Induced Arthritis in Rats (AAR); assay type: in vivo; details: Rattus norvegicus, 504 h; dosed 1 hour prior to adjuvant, then 21 consecutive days
[4] = read-out: RPAR-Pleural Cavity % Inhibition Cells
[5] = exudate volume, read-out: RPAR-Pleural Cavity % Inhibition Fluid
[6] = 50 mg/kg, read-out: RPAR-Pleural Cavity % Inhibition Cells
[7] = 50 mg/kg, exudate volume, read-out: RPAR-Pleural Cavity % Inhibition Fluid

SMILES | inhibition in vivo at 25 mg/kg [1] | inhibition in vivo at 25 mg/kg [2, 4] | inhibition in vivo at 25 mg/kg [2, 5] | Cyclooxygenese/lipoxygenese % Inhib. HHT (cyclooxygenase) | RPAR-Pleural Cavity % Inhibition LTE4 ([2]; 50 mg/kg, LTE4 in exudate by RIA) | RPAR-Pleural Cavity % Inhibition TXB2 ([2]; 50 mg/kg, TXB2 in exudate by RIA) | inhibition in vivo at 50 mg/kg [2, 6] | inhibition in vivo at 50 mg/kg [2, 7] | ED50 [3] | inhibition in vivo at 50 mg/kg [1]
O=C(NCc1ccccc1)c1c(O)n(-c2ccccc2)c2ncccc12 | 0% | 0% | 0% | 34% |  |  |  |  |  | 
CCCCNC(=O)c1c(O)n(-c2ccccc2)c2ncccc12 | 29% | 19% | 0% | 44% |  |  |  |  |  | 
Cn1c(O)c(C(=O)Nc2ccccc2)c2cccnc21 |  | 45% | 5% | 0% |  |  |  |  |  | 
O=C(Nc1cccc(C(F)(F)F)c1)c1c(O)n(-c2ccccc2)c2ncccc12 | 41% | 22% | 0% | 60% |  |  |  |  |  | 
O=C(Nc1ccccc1)c1c(O)n(Cc2ccc(F)cc2)c2ncccc12 | 32% | 30% | 46% | 57% |  |  |  |  |  | 
CC(C)(C)NC(=O)c1c(O)n(-c2ccccc2)c2ncccc12 | 49% | 66% | 23% |  |  |  |  |  |  | 
O=C(Nc1ccccc1)c1c(O)n(-c2ccccc2)c2ncccc12 | 60% | 56% | 49% | 93% | 59% | 100% | 61% | 27% | 9 mg/kg | 
O=C(Nc1ccccn1)c1c(O)n(-c2ccccc2)c2ncccc12 |  |  |  | 78% |  |  |  |  |  | 26%
O=C(Nc1ccccc1)c1c(O)[nH]c2ncccc12 | 22% |  |  | 0% |  |  |  |  |  | 
COc1ccc(NC(=O)c2c(O)n(-c3ccccc3)c3ncccc23)cc1 | 42% | 28% | 27% |  |  |  |  |  |  | 
CC(C)(C)n1c(O)c(C(=O)Nc2ccccc2)c2cccnc21 | 36% | 41% | 26% |  |  |  |  |  |  | 
O=C(Nc1ccccc1)c1c(O)n(-c2ccc(Cl)cc2)c2ncccc12 |  | 51% | 18% | 96% |  |  |  |  |  | 56%
O=C(Nc1ccccc1)c1c(O)n(-c2cccc(C(F)(F)F)c2)c2ncccc12 |  | 0% | 0% | 56% |  |  |  |  |  | 60%
O=C(O)c1cc(NC(=O)c2c(O)n(-c3ccccc3)c3ncccc23)ccc1O | 4% | 0% | 0% |  |  |  |  |  |  | 
CC(C)n1c(O)c(C(=O)Nc2ccccc2)c2cccnc21 |  | 34% | 44% |  |  |  | 65% | 57% |  | 
CC(C)c1ccc(-n2c(O)c(C(=O)Nc3ccccc3)c3cccnc32)cc1 | 34% | 9% | 8% |  |  |  |  |  |  | 
O=C(Nc1ccccc1)c1c(O)n(Cc2ccccc2)c2ncccc12 | 42% | 36% | 76% | 34% |  |  |  |  | 33 mg/kg | 
Cc1cc(NC(=O)c2c(O)n(-c3ccccc3)c3ncccc23)no1 | 10% | 0% | 0% | 45% |  |  |  |  |  | 
O=C(Nc1ccc(F)cc1F)c1c(O)n(-c2ccccc2)c2ncccc12 |  |  |  | 96% |  |  |  |  |  | 33%

From patent US5023265A, “Substituted 1-H-pyrrolopyridine-3-carboxamides” (Schering Corporation, priority 1990, dated 1991)
